Reference: ChEMBL document CHEMBL5143714, “Discovery of BMS-986339, a Pharmacologically Differentiated Farnesoid X Receptor Agonist for the Treatment of Nonalcoholic Steatohepatitis” (J Med Chem, 2022)
pEC50, pIC50: −log10 of the molar value.

Columns and labels:
Bile acid receptor = target: T1, Bile acid receptor (Mus musculus, UniProt Q60641); assay: Agonist activity at mouse LBD fused FXR in HEK293 cells incubated for 30 min by envision plate reader method; format: cell-based
T1 sequence (Q60641 whole entry): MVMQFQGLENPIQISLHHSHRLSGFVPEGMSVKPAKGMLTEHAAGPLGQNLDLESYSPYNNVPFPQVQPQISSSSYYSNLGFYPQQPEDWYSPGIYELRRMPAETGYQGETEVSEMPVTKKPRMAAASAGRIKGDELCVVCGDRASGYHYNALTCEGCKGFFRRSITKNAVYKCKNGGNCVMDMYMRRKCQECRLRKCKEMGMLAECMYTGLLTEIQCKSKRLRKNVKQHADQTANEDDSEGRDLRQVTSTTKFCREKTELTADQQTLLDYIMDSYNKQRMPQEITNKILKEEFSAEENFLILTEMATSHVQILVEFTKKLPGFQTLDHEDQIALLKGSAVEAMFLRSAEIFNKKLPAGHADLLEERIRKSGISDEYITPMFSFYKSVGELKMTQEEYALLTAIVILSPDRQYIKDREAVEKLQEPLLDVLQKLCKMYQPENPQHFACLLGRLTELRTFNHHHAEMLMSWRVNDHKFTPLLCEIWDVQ

[1] = system: Bile acid receptor (Homo sapiens); assay: Agonist activity at human FXR expressed in HEK293 cells coexpressing human FGF19 incubated for 24 hrs by ELISA analysis relative to GW2064; details: filed as agonist
[2] = Oral bioavailability in Sprague-Dawley rat at 2 mg/kg; format: ADME, organism-based; details: in vivo
[3] = target: T2, Bile acid receptor (Mus musculus) (UniProt Q60641); assay: Agonist activity at LBD-fused mouse FXR in HEK293 cells incubated for 30 min by envision plate reader method relative to GW2064; format: cell-based; details: filed as agonist
T2 sequence (whole entry): T1 sequence (Q60641 whole entry)

[4] = Metabolic stability in mouse liver microsome assessed as parent compound remaining at […] measured after 10 mins; format: ADME; details: liver microsomes, read-out: Stability
Cytochrome P450 2C9 [5] = target: T3, Cytochrome P450 2C9 (Homo sapiens, UniProt P11712); assay: Inhibition of CYP2C9 in human liver microsomes using fluorogenic substrate preincubated for 15 min followed by NADPH addition measured after 2 hrs by fluorescence based assay; format: ADME, Microsome
T3 sequence (P11712 whole entry): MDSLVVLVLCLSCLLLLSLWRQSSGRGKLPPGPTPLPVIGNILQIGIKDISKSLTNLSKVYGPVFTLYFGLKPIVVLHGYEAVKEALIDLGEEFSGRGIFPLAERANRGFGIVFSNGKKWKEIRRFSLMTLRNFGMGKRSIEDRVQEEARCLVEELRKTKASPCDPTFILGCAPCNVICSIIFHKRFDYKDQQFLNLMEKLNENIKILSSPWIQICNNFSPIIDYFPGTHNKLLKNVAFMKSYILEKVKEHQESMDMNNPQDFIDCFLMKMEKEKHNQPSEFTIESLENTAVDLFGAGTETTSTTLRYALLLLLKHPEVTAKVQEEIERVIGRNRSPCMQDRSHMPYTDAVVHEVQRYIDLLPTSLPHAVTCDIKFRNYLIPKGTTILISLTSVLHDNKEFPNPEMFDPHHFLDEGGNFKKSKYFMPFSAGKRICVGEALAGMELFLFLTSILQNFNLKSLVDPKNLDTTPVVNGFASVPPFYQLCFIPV

[6] = Volume of distribution at steady state in C57BL6 mouse at 1 mg/kg, iv; format: ADME, organism-based; details: in vivo, read-out: Vdss
Cytochrome P450 2C9 [7] = target: T3, Cytochrome P450 2C9; assay: Inhibition of recombinant CYP2C9 (unknown origin) using fluorogenic substrate preincubated for 15 min followed by NADPH addition measured after 2 hrs by fluorescence method; format: ADME
[8] = target: T4, Solute carrier organic anion transporter family member 1B3 (Homo sapiens, UniProt Q9NPD5); assay: Inhibition of OATP1B3 (unknown origin)
T4 sequence (Q9NPD5 whole entry): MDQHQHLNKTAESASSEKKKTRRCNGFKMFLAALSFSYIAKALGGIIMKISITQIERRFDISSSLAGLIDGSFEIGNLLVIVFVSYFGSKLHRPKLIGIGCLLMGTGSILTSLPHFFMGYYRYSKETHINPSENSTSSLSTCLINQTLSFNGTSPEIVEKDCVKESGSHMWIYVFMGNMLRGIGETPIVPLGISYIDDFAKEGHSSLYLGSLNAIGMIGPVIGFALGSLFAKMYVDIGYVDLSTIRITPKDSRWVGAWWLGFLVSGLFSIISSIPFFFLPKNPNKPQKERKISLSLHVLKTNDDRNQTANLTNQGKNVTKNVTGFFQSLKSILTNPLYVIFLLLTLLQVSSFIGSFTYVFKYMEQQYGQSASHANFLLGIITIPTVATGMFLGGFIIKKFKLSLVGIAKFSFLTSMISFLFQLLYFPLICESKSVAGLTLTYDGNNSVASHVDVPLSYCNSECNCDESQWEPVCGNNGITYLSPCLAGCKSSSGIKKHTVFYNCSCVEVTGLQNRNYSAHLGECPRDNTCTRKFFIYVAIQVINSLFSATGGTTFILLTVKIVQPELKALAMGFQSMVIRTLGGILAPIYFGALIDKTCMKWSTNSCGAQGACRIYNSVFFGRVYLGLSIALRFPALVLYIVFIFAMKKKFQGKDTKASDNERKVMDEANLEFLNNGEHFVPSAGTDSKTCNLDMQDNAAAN

[9] = AUC (total) in Sprague-Dawley rat at 2 mg/kg, po; format: ADME, organism-based; set-up: dose 2 mg/kg, route po; details: in vivo
[10] = AUC (total) in Sprague-Dawley rat at 1 mg/kg, iv; format: ADME, organism-based; set-up: dose 1 mg/kg, route iv; details: in vivo
[11] = Oral bioavailability in C57BL6 mouse at 5 mg/kg; format: ADME, organism-based; details: in vivo
[12] = target: T5, UDP-glucuronosyltransferase 1A1 (Homo sapiens, UniProt P22309); assay: Inhibition of human UGT1A1
T5 sequence (P22309 whole entry): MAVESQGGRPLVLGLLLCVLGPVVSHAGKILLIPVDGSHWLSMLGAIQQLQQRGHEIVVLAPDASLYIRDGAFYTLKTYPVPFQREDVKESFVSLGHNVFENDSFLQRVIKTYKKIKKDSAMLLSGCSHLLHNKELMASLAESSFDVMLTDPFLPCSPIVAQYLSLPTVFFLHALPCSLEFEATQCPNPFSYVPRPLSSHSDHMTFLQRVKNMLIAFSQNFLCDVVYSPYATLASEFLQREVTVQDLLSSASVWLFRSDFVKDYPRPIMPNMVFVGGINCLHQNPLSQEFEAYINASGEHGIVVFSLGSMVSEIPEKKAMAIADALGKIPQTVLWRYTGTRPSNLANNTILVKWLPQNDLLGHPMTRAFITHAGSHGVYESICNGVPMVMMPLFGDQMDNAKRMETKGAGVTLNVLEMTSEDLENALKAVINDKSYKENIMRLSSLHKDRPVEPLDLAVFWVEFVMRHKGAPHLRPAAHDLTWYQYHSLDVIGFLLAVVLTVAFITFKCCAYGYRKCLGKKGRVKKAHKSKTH

[13] = system: Bile acid receptor (Homo sapiens); assay: Agonist activity at human FXR expressed in HEK293 cells coexpressing IBABP relative to GW2064; details: filed as agonist
[14] = AUC (total) in C57BL6 mouse at 5 mg/kg, po; format: ADME, organism-based; set-up: dose 5 mg/kg, route po; details: in vivo
Cytochrome P450 2C19 = Cytochrome P450 2C19 (Homo sapiens, UniProt P33261); assay: Inhibition of recombinant CYP2C19 (unknown origin) using fluorogenic substrate preincubated for 15 min followed by NADPH addition measured after 2 hrs by fluorescence method; format: ADME
Chain of Cytochrome P450 2C19 (P33261 whole entry): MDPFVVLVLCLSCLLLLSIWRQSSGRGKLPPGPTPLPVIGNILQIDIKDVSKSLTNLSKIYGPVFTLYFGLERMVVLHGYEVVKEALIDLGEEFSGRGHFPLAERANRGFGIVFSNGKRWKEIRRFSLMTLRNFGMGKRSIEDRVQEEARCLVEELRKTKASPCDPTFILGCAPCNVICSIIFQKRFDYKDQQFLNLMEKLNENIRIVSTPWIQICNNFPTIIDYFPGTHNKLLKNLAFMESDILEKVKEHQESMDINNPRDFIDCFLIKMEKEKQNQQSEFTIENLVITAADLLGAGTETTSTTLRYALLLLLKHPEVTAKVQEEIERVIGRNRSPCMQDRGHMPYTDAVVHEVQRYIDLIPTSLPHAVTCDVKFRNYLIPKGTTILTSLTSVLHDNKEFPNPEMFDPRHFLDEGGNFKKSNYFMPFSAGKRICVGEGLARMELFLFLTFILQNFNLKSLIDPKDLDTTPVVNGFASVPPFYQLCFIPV

## CC(C)(O)c1ccc(-c2cccc(N(CC34CCC(c5noc(C(C)(C)F)n5)(CC3)CC4)C(=O)[C@H]3C[C@](O)(C(F)(F)F)C3)c2)cc1
Bile acid receptor
  pEC50: 7.85
[1]
  Emax: 89%
[2]
  bioavailability: 40%
[3]
  Emax: 601%
[4]
  remaining at 10 min: 90%
Cytochrome P450 2C9 [5]
  pIC50: 5.10
[6]
  Vd: 2.2 L/kg
Cytochrome P450 2C9 [7]
  pIC50: 5.30
[8]
  pIC50: 4.87
[9]
  AUC: 5.8 µM·h
[10]
  AUC: 6.6 µM·h
[11]
  bioavailability: 69%
[12]
  pIC50: 5.82
[13]
  Emax: 80%
[14]
  AUC: 56.6 µM·h
Cytochrome P450 2C19
  pIC50: 5.15
